Assay results taken from the supplement of paper PMC6965134.
± gives the standard deviation of the averaged measurements.

Assay: TIMS collisional cross section (CCS, N2) of the lipid ion; higher = larger ion cross section
Conditions: ionization mode: negative, one isomer drawn
Procedure: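 Lipid extracts of human plasma (NIST SRM 1950), mouse liver or HeLa cells were separated by nanoflow C18 LC (30 min gradient) and analysed by TIMS-PASEF on a timsTOF Pro. Ion mobility was calibrated with the Agilent tuning mix (negative mode ions) and converted to collisional cross sections (Mason–Schamp, N2).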

[1] = sample type: Mouse Liver, ion (formula + adduct): [C46H80NO8P-CH3] 1-
[2] = sample type: Human plasma, ion (formula + adduct): [C42H78NO8P+HCOO] 1-
[3] = sample type: Mouse Liver, ion (formula + adduct): [C42H78NO8P+HCOO] 1-
[4] = sample type: Mouse Liver, ion (formula + adduct): [C46H82NO8P+HCOO] 1-
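Note: lipids from MTBE extraction, five replicate injections per sample, 100 ms TIMS ramp spanning 0.6–1.95 Vs/cm², lipid identity assigned from PASEF MS/MS spectra.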

Compound: CCCCC/C=C\C/C=C\C/C=C\C/C=C\CCCC(=O)O[C@H](COC(=O)CCCCCCC/C=C\CCCCC)COP(=O)([O-])OCC[N+](C)(C)C [PC 15:1@_20:4]
- TIMS collisional cross section (sample type: Human plasma, ion (formula + adduct): [C43H76NO8P-H] 1-): 275 Å²
- TIMS collisional cross section (sample type: Mouse Liver, ion (formula + adduct): [C43H76NO8P-H] 1-): 275.6 Å²

Compound: CCCCC/C=C\C/C=C\CCCCCCCC(=O)O[C@H](COC(=O)CCCCCCC/C=C\CCCCC)COP(=O)([O-])OCC[N+](C)(C)C [PC 15:1_18:2]
- TIMS collisional cross section (sample type: Mouse Liver, ion (formula + adduct): [C41H76NO8P+HCOO] 1-): 286.5 Å²

Compound: CCCCC/C=C\C/C=C\C/C=C\CCCCC(=O)O[C@H](COC(=O)CCCCCCCCCCCCCCC)COP(=O)([O-])OCC[N+](C)(C)C [PC 16:0@_18:3]
- TIMS collisional cross section (sample type: Human plasma, ion (formula + adduct): [C42H78NO8P+AcO] 1-): 295.1 Å²

Compound: CC/C=C\C/C=C\C/C=C\C/C=C\CCCCC(=O)O[C@H](COC(=O)CCCCCCCCCCCCCCC)COP(=O)([O-])OCC[N+](C)(C)C [PC 16:0@_18:4]
- TIMS collisional cross section (sample type: Mouse Liver, ion (formula + adduct): [C42H76NO8P+HCOO] 1-): 287.6 Å²

Compound: CCCCC/C=C\C/C=C\C/C=C\C/C=C\C/C=C\CCC(=O)O[C@H](COC(=O)CCCCCCCCCCCCCCC)COP(=O)([O-])OCC[N+](C)(C)C [PC 16:0@_22:5]
- TIMS collisional cross section (sample type: Human plasma, ion (formula + adduct): [C46H82NO8P-CH3] 1-): 282.7 ± 0.42 Å²
- TIMS collisional cross section (sample type: Mouse Liver, ion (formula + adduct): [C46H82NO8P-CH3] 1-): 282.4 Å²

Compound: CC/C=C\C/C=C\C/C=C\C/C=C\C/C=C\C/C=C\CCC(=O)O[C@H](COC(=O)CCCCCCCCCCCCCCC)COP(=O)([O-])OCC[N+](C)(C)C [PC 16:0@_22:6]
- TIMS collisional cross section [1]: 281.3 Å²

Compound: C=CC(=O)O[C@H](COC(=O)CCCCCCCCCCCCCCC)COP(=O)([O-])OCC[N+](C)(C)C [PC 16:0_3:1@]
- TIMS collisional cross section (sample type: Human plasma, ion (formula + adduct): [C27H52NO8P+OAcO] 1-): 252.2 Å²
- TIMS collisional cross section (sample type: Mouse Liver, ion (formula + adduct): [C27H52NO8P+AcO] 1-): 244.7 Å²

Compound: C=CC(=O)O[C@H](COC(=O)CCCCCCCCCCCCCCC)COP(=O)([O-])OCC[N+](C)(C)C [PC 16:0_3:1]
- TIMS collisional cross section (sample type: Human plasma, ion (formula + adduct): [C27H52NO8P+AcO] 1-): 245.3 Å²
- TIMS collisional cross section (sample type: Mouse Liver, ion (formula + adduct): [C27H52NO8P+OAcO] 1-): 252.2 Å²

Compound: C=CCCC(=O)O[C@H](COC(=O)CCCCCCCCCCCCCCC)COP(=O)([O-])OCC[N+](C)(C)C [PC 16:0_5:1@]
- TIMS collisional cross section (sample type: Mouse Liver, ion (formula + adduct): [C29H56NO8P+HCOO] 1-): 247.5 Å²

Compound: C=CCCC(=O)O[C@H](COC(=O)CCCCCCCCCCCCCCC)COP(=O)([O-])OCC[N+](C)(C)C [PC 16:0_5:1]
- TIMS collisional cross section (sample type: Mouse Liver, ion (formula + adduct): [C29H56NO8P+AcO] 1-): 252.1 Å²

Compound: CCCCCCCCCCCCCCCC(=O)OC[C@H](COP(=O)([O-])OCC[N+](C)(C)C)OC(=O)CCCCCCCC [PC 16:0_9:0@]
- TIMS collisional cross section (sample type: Human plasma, ion (formula + adduct): [C33H66NO8P-H] 1-): 260.3 Å²

Compound: CCCCCCCCCCCCCCCC(=O)OC[C@H](COP(=O)([O-])OCC[N+](C)(C)C)OC(=O)CCCCCCCCCCCCCCC [PC 16:0_16:0]
- TIMS collisional cross section (sample type: Human plasma, ion (formula + adduct): [C40H80NO8P+HCOO] 1-): 289.35 ± 2.3 Å²
- TIMS collisional cross section (sample type: Mouse Liver, ion (formula + adduct): [C40H80NO8P+HCOO] 1-): 287.7 Å²

Compound: CCCCCC/C=C\CCCCCCCC(=O)O[C@H](COC(=O)CCCCCCCCCCCCCCC)COP(=O)([O-])OCC[N+](C)(C)C [PC 16:0_16:1]
- TIMS collisional cross section (sample type: Human plasma, ion (formula + adduct): [C40H78NO8P+HCOO] 1-): 286.6 Å²

Compound: CCCCCCCCCCCCCCCCC(=O)O[C@H](COC(=O)CCCCCCCCCCCCCCC)COP(=O)([O-])OCC[N+](C)(C)C [PC 16:0_17:0]
- TIMS collisional cross section (sample type: Human plasma, ion (formula + adduct): [C41H82NO8P+HCOO] 1-): 290.3 Å²

Compound: CCCCCCC/C=C\CCCCCCCC(=O)O[C@H](COC(=O)CCCCCCCCCCCCCCC)COP(=O)([O-])OCC[N+](C)(C)C [PC 16:0_17:1]
- TIMS collisional cross section (sample type: Mouse Liver, ion (formula + adduct): [C41H80NO8P+HCOO] 1-): 288.8 Å²

Compound: CCCCCCCCCCCCCCCCCC(=O)O[C@H](COC(=O)CCCCCCCCCCCCCCC)COP(=O)([O-])OCC[N+](C)(C)C [PC 16:0_18:0]
- TIMS collisional cross section (sample type: Human plasma, ion (formula + adduct): [C42H84NO8P+HCOO] 1-): 293.4 Å²
- TIMS collisional cross section (sample type: Mouse Liver, ion (formula + adduct): [C42H84NO8P+AcO] 1-): 299.1 Å²
- TIMS collisional cross section (sample type: Mouse Liver, ion (formula + adduct): [C42H84NO8P+HCOO] 1-): 293.4 Å²

Compound: CCCCC/C=C\C/C=C\C/C=C\CCCCC(=O)O[C@H](COC(=O)CCCCCCCCCCCCCCC)COP(=O)([O-])OCC[N+](C)(C)C [PC 16:0_18:3@]
- TIMS collisional cross section [2]: 288.8 Å²

Compound: CCCCC/C=C\C/C=C\C/C=C\CCCCC(=O)O[C@H](COC(=O)CCCCCCCCCCCCCCC)COP(=O)([O-])OCC[N+](C)(C)C [PC 16:0_18:3]
- TIMS collisional cross section [2]: 289.9 Å²
- TIMS collisional cross section [3]: 289.15 ± 0.21 Å²

Compound: CC/C=C\C/C=C\C/C=C\C/C=C\C/C=C\CCCC(=O)O[C@H](COC(=O)CCCCCCCCCCCCCCC)COP(=O)([O-])OCC[N+](C)(C)C [PC 16:0_20:5]
- TIMS collisional cross section (sample type: Human plasma, ion (formula + adduct): [C44H78NO8P+HCOO] 1-): 292.7 Å²
- TIMS collisional cross section (sample type: Mouse Liver, ion (formula + adduct): [C44H78NO8P-CH3] 1-): 275.6 Å²

Compound: CCCCC/C=C\C/C=C\C/C=C\C/C=C\C/C=C\CCC(=O)O[C@H](COC(=O)CCCCCCCCCCCCCCC)COP(=O)([O-])OCC[N+](C)(C)C [PC 16:0_22:5]
- TIMS collisional cross section [4]: 298.9 Å²

Compound: CC/C=C\C/C=C\C/C=C\C/C=C\C/C=C\C/C=C\CCC(=O)O[C@H](COC(=O)CCCCCCCCCCCCCCC)COP(=O)([O-])OCC[N+](C)(C)C [PC 16:0_22:6]
- TIMS collisional cross section (sample type: Human plasma, ion (formula + adduct): [C46H80NO8P+HCOO] 1-): 297.8 Å²
- TIMS collisional cross section (sample type: Mouse Liver, ion (formula + adduct): [C46H80NO8P+HCOO] 1-): 297.75 ± 0.78 Å²

Compound: CCCCC/C=C\C/C=C\CCCCCCCC(=O)O[C@H](COC(=O)CCCCCCC/C=C\CCCCCC)COP(=O)([O-])OCC[N+](C)(C)C [PC 16:1@_18:2]
- TIMS collisional cross section (sample type: Mouse Liver, ion (formula + adduct): [C42H78NO8P-H] 1-): 273.3 Å²

Compound: CCCCC/C=C\C/C=C\C/C=C\C/C=C\CCCCCC(=O)O[C@H](COC(=O)CCCCCCC/C=C\CCCCCC)COP(=O)([O-])OCC[N+](C)(C)C [PC 16:1@_22:4]
- TIMS collisional cross section [4]: 297.7 Å²

Compound: CCCCC/C=C\C/C=C\C/C=C\C/C=C\C/C=C\CCC(=O)O[C@H](COC(=O)CCCCCCC/C=C\CCCCCC)COP(=O)([O-])OCC[N+](C)(C)C [PC 16:1@_22:5]
- TIMS collisional cross section [1]: 280.1 Å²

Compound: CCCCCC/C=C\CCCCCCCC(=O)OC[C@H](COP(=O)([O-])OCC[N+](C)(C)C)OC(=O)CCCCCCCCCCCCC/C=C\CCCCCCCC [PC 16:1@_24:1]
- TIMS collisional cross section (sample type: Mouse Liver, ion (formula + adduct): [C48H92NO8P-CH3] 1-): 290.9 Å²

Compound: CCCCC/C=C\C/C=C\CCCCCCCC(=O)O[C@H](COC(=O)CCCCCCC/C=C\CCCCCC)COP(=O)([O-])OCC[N+](C)(C)C [PC 16:1_18:2]
- TIMS collisional cross section [3]: 288.8 Å²
- TIMS collisional cross section (sample type: Mouse Liver, ion (formula + adduct): [C42H78NO8P-CH3] 1-): 270.5 Å²

Compound: CCCCC/C=C\C/C=C\C/C=C\CCCCCCC(=O)O[C@H](COC(=O)CCCCCCC/C=C\CCCCCC)COP(=O)([O-])OCC[N+](C)(C)C [PC 16:1_20:3]
- TIMS collisional cross section (sample type: Mouse Liver, ion (formula + adduct): [C44H80NO8P-CH3] 1-): 276.2 Å²

Compound: CC/C=C\C/C=C\C/C=C\C/C=C\C/C=C\CCCC(=O)O[C@H](COC(=O)CCCCCCC/C=C\CCCCCC)COP(=O)([O-])OCC[N+](C)(C)C [PC 16:1_20:5]
- TIMS collisional cross section (sample type: Human plasma, ion (formula + adduct): [C44H76NO8P+HCOO] 1-): 290.4 Å²
- TIMS collisional cross section (sample type: Mouse Liver, ion (formula + adduct): [C44H76NO8P+HCOO] 1-): 290.4 Å²

Compound: CC/C=C\C/C=C\C/C=C\C/C=C\C/C=C\C/C=C\CCC(=O)O[C@H](COC(=O)CCCCCCC/C=C\CCCCCC)COP(=O)([O-])OCC[N+](C)(C)C [PC 16:1_22:6]
- TIMS collisional cross section (sample type: Human plasma, ion (formula + adduct): [C46H78NO8P+HCOO] 1-): 295.4 Å²

Compound: CCCCCCCCCCCCCCCCC(=O)OC[C@H](COP(=O)([O-])OCC[N+](C)(C)C)OC(C)=O [PC 17:0@_2:0]
- TIMS collisional cross section (sample type: Human plasma, ion (formula + adduct): [C27H54NO8P-H] 1-): 239 ± 3 Å²

Compound: CCCCCCCC/C=C\CCCCCCCC(=O)O[C@H](COC(=O)CCCCCCCCCCCCCCCC)COP(=O)([O-])OCC[N+](C)(C)C [PC 17:0@_18:1]
- TIMS collisional cross section (sample type: Mouse Liver, ion (formula + adduct): [C43H84NO8P+HCOO] 1-): 294.5 Å²

Compound: CCCCC/C=C\C/C=C\C/C=C\C/C=C\CCCC(=O)O[C@H](COC(=O)CCCCCCCCCCCCCCCC)COP(=O)([O-])OCC[N+](C)(C)C [PC 17:0@_20:4]
- TIMS collisional cross section (sample type: Mouse Liver, ion (formula + adduct): [C45H82NO8P+HCOO] 1-): 296.7 Å²
